According to ChEMBL document CHEMBL3045473, “Affinity of 3-benzylidene- and 3-cinnamylidenemyosmine analogues for Periplaneta americana nicotinic acetylcholine receptors” (J Pestic Sci, 2006):

Experiments:
[1] = biological target: T1, Nicotinic acetylcholine receptor alpha8 subunit (Periplaneta americana, UniProt H6TY12); assay: Displacement of [3H]epibatidine from nAChR in Periplaneta americana (American cockroach) nerve cords membranes incubated at 24 degC for 2 hr by liquid scintillation counting method
T1 sequence (H6TY12 whole entry): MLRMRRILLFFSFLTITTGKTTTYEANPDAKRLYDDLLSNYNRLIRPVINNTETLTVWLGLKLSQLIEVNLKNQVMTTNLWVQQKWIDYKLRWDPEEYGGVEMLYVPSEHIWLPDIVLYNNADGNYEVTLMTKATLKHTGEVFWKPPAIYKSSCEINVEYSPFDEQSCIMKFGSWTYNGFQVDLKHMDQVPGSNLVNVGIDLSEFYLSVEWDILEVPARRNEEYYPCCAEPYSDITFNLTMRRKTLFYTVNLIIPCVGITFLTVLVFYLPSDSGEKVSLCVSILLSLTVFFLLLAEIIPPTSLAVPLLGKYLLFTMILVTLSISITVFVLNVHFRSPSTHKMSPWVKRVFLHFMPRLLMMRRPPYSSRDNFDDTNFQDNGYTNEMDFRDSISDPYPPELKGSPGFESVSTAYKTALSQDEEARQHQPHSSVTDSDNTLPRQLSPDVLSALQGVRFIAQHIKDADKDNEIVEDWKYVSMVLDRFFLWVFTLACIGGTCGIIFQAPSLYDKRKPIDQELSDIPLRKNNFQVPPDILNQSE

[2] = biological target: T2, Nicotinic acetylcholine receptor alpha8 subunit (Periplaneta americana) (UniProt H6TY12); assay: Displacement of [3H]epibatidine from nAChR in Periplaneta americana (American cockroach) nerve cords membranes at 10 uM incubated at 24 degC for 2 hr by liquid scintillation counting method
T2 sequence (whole entry): T1 sequence (H6TY12 whole entry)

Row | SMILES | IC50 [1] | inhibition [2]
1 | C(=C\c1ccccc1)/C=C1\CCN=C1c1cccnc1 [3-CINNAMYLIDENEMYOSMINE] | 3.52 µM | 
2 | CN(C)c1ccc(/C=C2\CCN=C2c2cccnc2)cc1 | 5.49 µM | 
3 | CN(C)c1ccc(/C=C/C=C2\CCN=C2c2cccnc2)cc1 | 2.07 µM | 
4 | N#Cc1ccc(/C=C2\CCN=C2c2cccnc2)cc1 | > 10 µM | 31.4%
5 | C(=C1/CCCN=C1c1cccnc1)/c1ccccc1 [3-BENZYLIDENEANABASEINE] | 0.035 µM | 
6 | COc1cccc(/C=C2\CCN=C2c2cccnc2)c1 | > 10 µM | 23.6%
7 | Oc1ccc(/C=C2\CCN=C2c2cccnc2)c(O)c1 | 0.12 µM | 
8 | Oc1cccc(/C=C2\CCN=C2c2cccnc2)c1 | > 10 µM | 32.1%
9 | Oc1ccc(/C=C2\CCN=C2c2cccnc2)cc1 | 0.31 µM | 
10 | Clc1ccc(/C=C2\CCN=C2c2cccnc2)cc1 | > 10 µM | 21.5%
11 | C(=C1/CCN=C1c1cccnc1)/c1ccccc1 | > 10 µM | 41.3%
12 | COc1ccc(/C=C2\CCN=C2c2cccnc2)cc1 | > 10 µM | 31.4%
13 | Clc1ccc(C2=NCCC/C2=C\c2ccccc2)cn1 | 0.0212 µM | 
14 | Fc1ccc(/C=C2\CCN=C2c2cccnc2)cc1 | > 10 µM | 22.3%
15 | COc1ccc(/C=C2\CCN=C2c2cccnc2)c(O)c1 | 3.89 µM | 
16 | COc1ccc(/C=C2\CCN=C2c2cccnc2)c(OC)c1 | 4.55 µM | 
17 | Oc1ccccc1/C=C1\CCN=C1c1cccnc1 | 6.9 µM | 
18 | COc1ccccc1/C=C1\CCN=C1c1cccnc1 | > 10 µM | 49.5%
19 | c1cncc(C2=NCCC2)c1 [MYOSMINE] | > 10 µM | 27.3%
